As usually defined, the koff is the first-order rate constant of dissociation. A word on the kon: it is the second-order rate constant of association.

For this assay, the target named is NTS1R (Homo sapiens, UniProt P30989). As to the kind of experiment: High-content imaging (HCI) association and dissociation kinetics, adherent CHO-hNTS1R cells. Type of assay: binding. Particulars: for koff: 23 °C, read-out: koff [min^–1] (converted); for kon: calculated from kobs, koff and ligand concentration, read-out: kon [min^–1 nM^–1] (converted). Here is the method:
CHO-hNTS1R or HT-29 cells were seeded one day prior to the experiment into the inner 60 wells of a black clear-bottom 96-well plate (Greiner 655090, Greiner Bio-One) at a concentration of 25,000 cells/well and 35,000 cells/well, respectively. On the day of the assay, the medium was removed by suction and the cells were washed with DPBS1 (50 μL). After this step, DPBS1 (180 or 200 μL) containing the nuclear dye Hoechst H33342 (2 μg/mL) was added. This solution also contained the fluorescent ligand (kinetic studies, competition binding experiments), or the fluorescent ligand was added separately (saturation binding experiments). In the case of competition binding experiments, the nonlabeled receptor ligands were also added separately (details given below). All samples were incubated at 23 ± 1 °C in the dark under gentle shaking (incubation times are specified below). The final volume per well was 200 μL. Shortly before subjecting the plate to the plate reader for image acquisition, the liquid was removed by suction and DPBS1 (100 μL) was added. Images were acquired using an IX Micro plate reader (Molecular Devices, Sunnyvale, CA) using a 20× Plan Fluor ELWD objective, a xenon lamp light source and DAPI and TRITC excitation/emission filter cubes for imaging nuclear and fluorescent ligand staining, respectively. […] Two sites/well were measured throughout. Images were analyzed by granularity analysis (2–3 μm diameter granules; MetaXpress 5.3, Molecular Devices, San Diego, CA) and the integrated intensity (pixel intensity × granule area) per cell was used as the raw measurement of fluorescent ligand binding. […]
After the initial washing step, 200 μL of DPBS1 containing the fluorescent ligand 13 or 18 (2.5 nM) and DAPI were added to determine total binding. […] The samples of the different time points were prepared in reversed order (longest incubation time first, shortest incubation time last) so that the cells of all samples could be washed and measured approximately at the same time (note: the measurement time for 60 wells was <5 min). […] Specific binding data, obtained by subtracting triplicate mean values of unspecific binding from triplicate mean values of total binding, were plotted against the time and analyzed by a three-parameter equation describing an exponential rise to a maximum (one-phase association, Y0 constrained to zero, GraphPad Prism 5) to yield the observed association rate constant kobs. […]
After initial washing of the cells, 200 μL of DPBS1 containing the fluorescent ligand 13 or 18 (2.5 nM) and DAPI were added to the wells (determination of total binding). […] The plate was directly subjected to the plate reader (no washing step). […]

Sequence of NTS1R (P30989 whole entry): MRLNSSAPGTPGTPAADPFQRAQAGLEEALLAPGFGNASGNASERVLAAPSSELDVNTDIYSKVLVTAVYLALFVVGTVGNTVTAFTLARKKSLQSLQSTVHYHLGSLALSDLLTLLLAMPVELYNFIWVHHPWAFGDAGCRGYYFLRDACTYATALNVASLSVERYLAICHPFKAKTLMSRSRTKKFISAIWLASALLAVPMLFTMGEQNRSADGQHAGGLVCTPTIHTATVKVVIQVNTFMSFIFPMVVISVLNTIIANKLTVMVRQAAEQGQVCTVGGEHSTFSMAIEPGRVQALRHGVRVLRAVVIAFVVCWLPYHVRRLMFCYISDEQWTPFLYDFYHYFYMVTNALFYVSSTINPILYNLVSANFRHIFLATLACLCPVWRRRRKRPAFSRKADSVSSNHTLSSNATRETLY

Turning to `CCC(=O)NCCCCNC(=O)N=C(N)NCCC[C@H](NC(=O)[C@@H]1CCCN1C(=O)[C@@H](NC(=O)CCc1cn(CCCNC(=O)c2ccc(-c3c4ccc(=[N+](C)C)cc-4oc4cc(N(C)C)ccc34)c(C(=O)[O-])c2)nn1)C1CCNCC1)C(=O)N[C@@H](CCCNC(=N)N)C(=O)N1CCC[C@H]1C(=O)N[C@@H](Cc1ccc(O)cc1)C(=O)N[C@H](C(=O)N[C@@H](CC(C)C)C(=O)O)[C@@H](C)CC` [Compound 13, N^α-(3-(1-N-((1-Carboxylato-2-(6-(dimethylamino)-3-(dimethyliminio)-3H-xanthen-9-yl)phen-5-yl)1-oxomethyl)aminoprop-3-yl-1H-1,2,3-triazol-4-yl)propanoyl)-2-(piperidin-4-yl)-Gly-Pro-N^ω-[(4-(N-propanoyl)aminobutyl)aminocarbonyl]Arg-Arg-Pro-Tyr-Ile-Leu Tris(hydrotrifluoroacetate)], the off-rate constant (koff) is 0.000733 s⁻¹ and the kon is 267000 M⁻¹ s⁻¹.
For `CCC(=O)NCCCCNC(=O)NC(=N)NCCC[C@H](NC(=O)[C@@H]1CCCN1C(=O)[C@@H](NC(=O)CCc1cn(CCCNC(=O)CCC#Cc2ccc3c(c2)C(C)(C)C2=C4C=C5C6=[N+](CCC5OC4CCN23)c2ccc(S(=O)(=O)[O-])cc2C6(C)C)nn1)C1CCNCC1)C(=O)N[C@@H](CCCNC(=N)N)C(=O)N1CCC[C@H]1C(=O)N[C@H](C(=O)N[C@H](C(=O)N[C@@H](CC(C)C)C(=O)O)[C@@H](C)CC)C(C)(C)c1ccc(O)cc1` (stereo partly drawn) [Compound 18, N^α-(3-(N-(1-(8-Sulfonato-5,5,27,27-tetramethyl-16-oxa-20-aza-12-azoniaheptacyclo[15.11.0.03,15.04,12.06,11.020,28.021,26]octacosa-1(28),2,4(12),6(11),7,9,21(26),22,24-nonaen-24-yl)-5-oxopentyn-5-yl)-1-aminoprop-3-yl-1H-1,2,3-triazol-4-yl)propanoyl)-2-(piperidin-4-yl)-Gly-Pro-N^ω-[(4-(N-propanoyl)aminobutyl)aminocarbonyl]Arg-Arg-Pro-β,β-dimethyl-L-Tyr-Ile-Leu Tris(hydrotrifluoroacetate)], in that order: 0.00085 s⁻¹ and 135000 M⁻¹ s⁻¹.

These data come from paper PMC11440508, “Dually Labeled Neurotensin NTS1R Ligands for Probing Radiochemical and Fluorescence-Based Binding Assays” (Journal of Medicinal Chemistry, 2024).
